Laboratory results as given in the supplement of paper PMC11061612.

How the values were obtained:
[1] = system: NB(TU)1-10 (Neuroblastoma); assay: Bliss excess, mean over the matrix (fraction); higher = more synergy
How it was run: (§1)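 Bliss excess equals the observed combination effect minus the expected value EA + EB − EA·EB, where EA and EB are the effects of each agent alone. Combination Emax is the second-highest inhibition within the matrix. Inhibition was scaled from CellTiter-Glo 2.0 luminescence, with 0 set by vehicle wells and 1 by blank wells, after 72 hours of two-drug dosing of cells plated in 1536-well plates.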

[2] = system: JiyoyeP-2003 (Burkitt's Lymphoma); assay: combination Emax (second highest fraction inhibited in the dose matrix, 72 h); higher = more inhibition; extreme values may be limits of the assay
How it was run: as §1

[3] = system: NB(TU)1-10 (Neuroblastoma); assay: as above
How it was run: as §1

[4] = system: NCI-H2369 (Mesothelioma); assay: as above
How it was run: as §1

[5] = system: NCI-H211 (Small Cell Lung Carcinoma); assay: Bliss excess, mean over the matrix (fraction); higher = more synergy
How it was run: as §1

[6] = system: NCI-H211 (Small Cell Lung Carcinoma); assay: combination Emax (second highest fraction inhibited in the dose matrix, 72 h); higher = more inhibition; extreme values may be limits of the assay
How it was run: as §1

SMILES	Bliss excess [1]	combination Emax [2]	combination Emax [3]	combination Emax [4]	Bliss excess [5]	combination Emax [6]
C[C@@H]1COCCN1c1cc(C2([S@](C)(=N)=O)CC2)nc(-c2ccnc3[nH]ccc23)n1 [AZD6738] + O=C(c1cc(Cc2n[nH]c(=O)c3ccccc23)ccc1F)N1CCN(C(=O)C2CC2)CC1 [Olaparib] (first compound max 10 µM, 7x7, partner max 10 µM)	0.0254	0.944	0.751	0.133		
CCN(CCO)CCCOc1ccc2c(Nc3cc(CC(=O)Nc4cccc(F)c4)[nH]n3)ncnc2c1 [AZD2811] + C=CCn1c(=O)c2cnc(Nc3ccc(N4CCN(C)CC4)cc3)nc2n1-c1cccc(C(C)(C)O)n1 [AZD1775] (first compound max 1 µM, partner max 1 µM)	0.0337	0.926	0.881	0.151		
COc1cccc(OCCCN)c1-c1cc(Nc2cnc(C#N)cn2)n[nH]1 [Prexasertib] + C[C@@H]1COCCN1C2=NC(=NC(=C2)C3(CC3)[S@](=N)(=O)C)C4=C5C=CNC5=NC=C4 [AZD6738] (first compound max 1 µM, 7x7, partner max 10 µM)	-0.141	0.981	0.94	0.192		
Cc1cc2ncnn2cc1Nc1ncc2c(n1)n(C1CCOCC1)c(=O)n2C [AZD7648] + C=CCn1c(=O)c2cnc(Nc3ccc(N4CCN(C)CC4)cc3)nc2n1-c1cccc(C(C)(C)O)n1 [AZD1775] (first compound max 10 µM, partner max 1 µM)	-0.062	0.929	0.824	0.314		
C=CCn1c(=O)c2cnc(Nc3ccc(N4CCN(C)CC4)cc3)nc2n1-c1cccc(C(C)(C)O)n1 [AZD1775] + C[C@@H]1COCCN1C2=NC(=NC(=C2)C3(CC3)[S@](=N)(=O)C)C4=C5C=CNC5=NC=C4 [AZD6738] (first compound max 1 µM, partner max 10 µM)	0.0985	0.982	0.875	0.336		
CCc1c2c(nc3ccc(O)cc13)-c1cc3c(c(=O)n1C2)COC(=O)[C@]3(O)CC [SN-38] + O=C(c1cc(Cc2n[nH]c(=O)c3ccccc23)ccc1F)N1CCN(C(=O)C2CC2)CC1 [Olaparib] (first compound max 0.3 µM, 7x7, partner max 10 µM)	0.0289	0.947	0.805	0.265		
Cc1cc2ncnn2cc1Nc1ncc2c(n1)n(C1CCOCC1)c(=O)n2C [AZD7648] + O=C(c1cc(Cc2n[nH]c(=O)c3ccccc23)ccc1F)N1CCN(C(=O)C2CC2)CC1 [Olaparib] (first compound max 10 µM, 7x7, partner max 10 µM)	-0.0408	0.423	0.263	0.0731		
COc1cccc(OCCCN)c1-c1cc(Nc2cnc(C#N)cn2)n[nH]1 [Prexasertib] + CN(C)CCCOc1ccc(-c2ccc3ncc4c(c3c2)n(C2CCOCC2)c(=O)n4C)cn1 [AZD0156] (first compound max 1 µM, 7x7, partner max 1 µM)	-0.0519	0.987	0.934	0.29		
CN(C)CCCOc1ccc(-c2ccc3ncc4c(c3c2)n(C2CCOCC2)c(=O)n4C)cn1 [AZD0156] + C[C@@H]1COCCN1C2=NC(=NC(=C2)C3(CC3)[S@](=N)(=O)C)C4=C5C=CNC5=NC=C4 [AZD6738] (first compound max 1 µM, 7x7, partner max 10 µM)	-0.0026	0.955	0.798	0.187		
COc1cccc(OCCCN)c1-c1cc(Nc2cnc(C#N)cn2)n[nH]1 [Prexasertib] + C=CCn1c(=O)c2cnc(Nc3ccc(N4CCN(C)CC4)cc3)nc2n1-c1cccc(C(C)(C)O)n1 [AZD1775] (first compound max 1 µM, partner max 1 µM)	-0.0039	0.984	0.965	0.296		
CCN(CCO)CCCOc1ccc2c(Nc3cc(CC(=O)Nc4cccc(F)c4)[nH]n3)ncnc2c1 [AZD2811] + C[C@@H]1COCCN1C2=NC(=NC(=C2)C3(CC3)[S@](=N)(=O)C)C4=C5C=CNC5=NC=C4 [AZD6738] (first compound max 1 µM, 7x7, partner max 10 µM)	-0.063	0.93	0.756	0.178		
COc1cc2c(cc1OCCCCCOc1cc3c(cc1OC)C(=O)N1C=C(C)C[C@H]1C=N3)N=C[C@@H]1CC(C)=CN1C2=O [SG3199] + O=C(c1cc(Cc2n[nH]c(=O)c3ccccc23)ccc1F)N1CCN(C(=O)C2CC2)CC1 [Olaparib] (first compound max 0.001 µM, 7x7, partner max 10 µM)	-0.0149	0.124	0.187	0.0848		
COc1cccc(OCCCN)c1-c1cc(Nc2cnc(C#N)cn2)n[nH]1 [Prexasertib] + CCc1c2c(nc3ccc(O)cc13)-c1cc3c(c(=O)n1C2)COC(=O)[C@]3(O)CC [SN-38] (first compound max 1 µM, 7x7, partner max 0.3 µM)	-0.0763	1	0.922	0.4		
CN(C)CCCOc1ccc(-c2ccc3ncc4c(c3c2)n(C2CCOCC2)c(=O)n4C)cn1 [AZD0156] + CCN(CCO)CCCOc1ccc2c(Nc3cc(CC(=O)Nc4cccc(F)c4)[nH]n3)ncnc2c1 [AZD2811] (first compound max 1 µM, 7x7, partner max 1 µM)	-0.0294	0.408	0.292	0.0791		
Cc1cc2ncnn2cc1Nc1ncc2c(n1)n(C1CCOCC1)c(=O)n2C [AZD7648] + CCN(CCO)CCCOc1ccc2c(Nc3cc(CC(=O)Nc4cccc(F)c4)[nH]n3)ncnc2c1 [AZD2811] (first compound max 10 µM, 7x7, partner max 1 µM)	-0.0403	0.481	0.297	0.235		
CCN(CCO)CCCOc1ccc2c(Nc3cc(CC(=O)Nc4cccc(F)c4)[nH]n3)ncnc2c1 [AZD2811] + O=C(c1cc(Cc2n[nH]c(=O)c3ccccc23)ccc1F)N1CCN(C(=O)C2CC2)CC1 [Olaparib] (first compound max 1 µM, 7x7, partner max 10 µM)	0.0344	0.315	0.257	0.216		
COc1nnc2ccc(N3CCC(c4ccc(OCCN5CCN(C)C(=O)[C@H]5C)cc4)CC3)nn12 [AZD5153] + CC1(C)CCC(CN2CCN(c3ccc(C(=O)NS(=O)(=O)c4ccc(NCC5CCOCC5)c([N+](=O)[O-])c4)c(Oc4cnc5[nH]ccc5c4)c3)CC2)=C(c2ccc(Cl)cc2)C1 [Venetoclax] (first compound max 1 µM, 7x7, partner max 1 µM)		0.833		0.327	0.03	1
CC(=O)c1c(C)c2cnc(Nc3ccc(N4CCNCC4)cn3)nc2n(C2CCCC2)c1=O [Palbociclib] + CC1(C)CCC(CN2CCN(c3ccc(C(=O)NS(=O)(=O)c4ccc(NCC5CCOCC5)c([N+](=O)[O-])c4)c(Oc4cnc5[nH]ccc5c4)c3)CC2)=C(c2ccc(Cl)cc2)C1 [Venetoclax] (first compound max 10 µM, 7x7, partner max 1 µM)		0.614		0.139	0.0694	0.965
CS(=O)(=O)CCNCc1ccc(-c2ccc3ncnc(Nc4ccc(OCc5cccc(F)c5)c(Cl)c4)c3c2)o1 [Lapatinib] + C[C@@H](Oc1cc(-c2cnn(C3CCNCC3)c2)cnc1N)c1c(Cl)ccc(F)c1Cl [Crizotinib] (first compound max 10 µM, 7x7, partner max 10 µM)		0.863		0.254	-0.0329	0.948
NC1(C(=O)N[C@@H](CCO)c2ccc(Cl)cc2)CCN(c2ncnc3[nH]ccc23)CC1 [Capivasertib] + CCN(CCO)CCCOc1ccc2c(Nc3cc(CC(=O)Nc4cccc(F)c4)[nH]n3)ncnc2c1 [AZD2811] (first compound max 10 µM, 7x7, partner max 1 µM)		0.777		0.231	-0.0107	0.944
NC1(C(=O)N[C@@H](CCO)c2ccc(Cl)cc2)CCN(c2ncnc3[nH]ccc23)CC1 [Capivasertib] + Cn1cnc2c(F)c(Nc3ccc(Br)cc3Cl)c(C(=O)NOCCO)cc21 [Selumetinib] (first compound max 10 µM, 7x7, partner max 10 µM)		0.775		0.231	0.119	0.568
